Series [1] relates to Mus musculus. Nature of the series: Anticonvulsant activity in Mus musculus (mouse) subcutaneous PTZ-induced seizure assessed as carbonyl protein level at 40 mg/kg, ip administered 30 min before PTZ challenge. Type of series: functional.
For series [2], the system named is Mus musculus. Description: Anticonvulsant activity in Mus musculus (mouse) subcutaneous PTZ-induced seizure assessed as reduced glutathione level per mg of protein at 20 mg/kg, ip administered 30 min before PTZ challenge by Ellman method. In kind it is functional. For orientation: In Ellman's method for cholinesterases, released thiocholine reacts with DTNB.
The test system of series [3] is Mus musculus. Description: Anticonvulsant activity in Mus musculus (mouse) assessed as protection against subcutaneous PTZ-induced seizure at 40 mg/kg, ip administered 30 min before PTZ challenge. Type of series: functional.
Series [4] deals with Mus musculus. Nature of the series: Anticonvulsant activity in Mus musculus (mouse) subcutaneous PTZ-induced seizure assessed as reduced nitrite level per mg of protein at 40 mg/kg, ip administered 30 min before PTZ challenge by Griess reaction. Type of series: functional. On the technique in general: Nitrite, measured by Griess reagent, commonly stands in for NO production.

In series [5] the test system is Mus musculus. Description: Anticonvulsant activity in Mus musculus (mouse) subcutaneous PTZ-induced seizure assessed as malondialdehyde level at 40 mg/kg, ip administered 30 min before PTZ challenge by TBARS assay. Type of series: functional.
For series [6], the system named is Mus musculus. Description: Anticonvulsant activity in Mus musculus (mouse) subcutaneous PTZ-induced seizure assessed as reduced nitrite level per mg of protein at 20 mg/kg, ip administered 30 min before PTZ challenge by Griess reaction. In kind it is functional.
Series [7] concerns Mus musculus. Description: Anticonvulsant activity in Mus musculus (mouse) subcutaneous PTZ-induced seizure assessed as carbonyl protein level at 20 mg/kg, ip administered 30 min before PTZ challenge. In kind it is functional.
In series [8] the test system is Mus musculus. Nature of the series: Acute toxicity in Mus musculus (mouse) assessed as behavioral changes at 1000 mg/kg, ip. Type of series: organism-based. On the set-up: dose 1000 mg/kg, route intraperitoneal. The note with it: in vivo.
Series [9] deals with Mus musculus. Description: Anticonvulsant activity in Mus musculus (mouse) assessed as protection against subcutaneous PTZ-induced seizure at 20 mg/kg, ip administered 30 min before PTZ challenge. In kind it is functional.
Series [10] has as its system Mus musculus. Description: Acute toxicity in Mus musculus (mouse) at 100 to 200 mg/kg, ip. In kind it is organism-based. On the set-up: dose 100-200 mg/kg, route intraperitoneal. The note with it: in vivo.
Series [11] is described as follows: Acute toxicity in Mus musculus (mouse) assessed as mortality at 1000 mg/kg, ip. The note with it: in vivo, read-out: Activity. On the set-up: dose 1000 mg/kg, route intraperitoneal. In kind it is organism-based.
Series [12] has as its system Mus musculus. Description: Anticonvulsant activity in Mus musculus (mouse) subcutaneous PTZ-induced seizure assessed as malondialdehyde level at 20 mg/kg, ip administered 30 min before PTZ challenge by TBARS assay. Type of series: functional.
For series [13], the system named is Mus musculus. Nature of the series: Anticonvulsant activity in Mus musculus (mouse) subcutaneous PTZ-induced seizure assessed as reduced glutathione level per mg of protein at 40 mg/kg, ip administered 30 min before PTZ challenge by Ellman method. In kind it is functional.
In series [14] the test system is Mus musculus. Nature of the series: Anticonvulsant activity in Mus musculus (mouse) subcutaneous PTZ-induced seizure assessed as malondialdehyde level at 80 mg/kg, ip administered 30 min before PTZ challenge by TBARS assay. Type of series: functional.
In series [15] the test system is Mus musculus. Description: Anticonvulsant activity in Mus musculus (mouse) subcutaneous PTZ-induced seizure assessed as reduced glutathione level per mg of protein at 80 mg/kg, ip administered 30 min before PTZ challenge by Ellman method. Type of series: functional.
Series [16] relates to Mus musculus. Nature of the series: Anticonvulsant activity in Mus musculus (mouse) subcutaneous PTZ-induced seizure assessed as reduced nitrite level per mg of protein at 80 mg/kg, ip administered 30 min before PTZ challenge by Griess reaction. In kind it is functional.
In series [17] the test system is Mus musculus. Description: Anticonvulsant activity in Mus musculus (mouse) assessed as protection against subcutaneous PTZ-induced seizure at 80 mg/kg, ip administered 30 min before PTZ challenge. Type of series: functional.
The subject of series [18] is Mus musculus. Description: Anticonvulsant activity in Mus musculus (mouse) subcutaneous PTZ-induced seizure assessed as carbonyl protein level at 80 mg/kg, ip administered 30 min before PTZ challenge. In kind it is functional.

As for `COc1cc(C2C(Cl)C(=O)N2NC2C(=O)NC(=O)NC2=O)ccc1O` (centres undefined), the Activity in the series on Mus musculus [1] turned out to be 20.48 nmol/mg; in the series with Mus musculus [2] it was 0.081 µmol; in the series with Mus musculus [3], 83%; in the series on Mus musculus [4] it was 0.54 µmol; in the series with Mus musculus [5], 30.68 nmol/mg; in the series on Mus musculus [6], 0.53 µmol. For the same compound, the Activity is 21.68 nmol/mg with Mus musculus [7]; “Toxic” with Mus musculus [8]; 66% in the series with Mus musculus [9]; “Non-toxic” with Mus musculus [10]; 35.19 nmol/mg in the series on Mus musculus [12]; 0.084 µmol in the series with Mus musculus [13]. Besides, the mortality in series [11] is 70%.
On to `COc1ccc(C2C(Cl)C(=O)N2NC2C(=O)NC(=O)NC2=O)cc1` (centres undefined), for which the Activity with Mus musculus [1] was found to be 25.94 nmol/mg; in the series on Mus musculus [2], 0.043 µmol; in the series on Mus musculus [3], 66%; with Mus musculus [4] it was 0.49 µmol; in the series with Mus musculus [5] it was 42.91 nmol/mg; in the series with Mus musculus [6], 0.47 µmol. Also, the Activity was 27.53 nmol/mg in the series on Mus musculus [7]; “Toxic” in the series with Mus musculus [8]; 33% with Mus musculus [9]; “Non-toxic” with Mus musculus [10]; 47.11 nmol/mg with Mus musculus [12]; 0.047 µmol with Mus musculus [13]. The mortality in [11] amounted to 70%.
On to `O=C1NC(=O)C(NN2C(=O)C(Cl)C2c2ccccc2)C(=O)N1` (centres undefined), for which the Activity was found to be 29.61 nmol/mg with Mus musculus [1]; 0.031 µmol in the series with Mus musculus [2]; 16% with Mus musculus [3]; 0.48 µmol in the series on Mus musculus [4]; 44.04 nmol/mg in the series on Mus musculus [5]; 0.46 µmol in the series with Mus musculus [6]. The Activity with Mus musculus [7] was 30.74 nmol/mg; with Mus musculus [8], “Toxic”; in the series with Mus musculus [9] it was 16%; with Mus musculus [10] it was “Non-toxic”; with Mus musculus [12], 48.36 nmol/mg; in the series on Mus musculus [13] it was 0.036 µmol. The mortality in series [11] was 70%.
Turning to `CCCC(CCC)C(=O)[O-].[Na+]` [VALPROATE SODIUM], the Activity in the series on Mus musculus [14] came out at 28.13 nmol/mg; with Mus musculus [15], 0.089 µmol; in the series on Mus musculus [16], 0.54 µmol; with Mus musculus [17], 100%; in the series on Mus musculus [18], 19.06 nmol/mg.

(Values after ChEMBL document CHEMBL3045594, “Synthesis and evaluation of substituted 5-(3-chloro-2-oxo-4-phenylazetidin-1-ylamino)pyrimidine-2,4,6(1H,3H,5H)-triones against pentylenetetrazole-induced convulsant in mice” (Med Chem Res, 2012).)
